Read-outs that look alike come from different tables or passages of the source.
Key:
ACE2 mRNA = format: cell-based, African green monkey (Chlorocebus sp)
SARS-CoV-2 (Vic 01) = assay: microbe, parasite or virus in culture; format: cell-based; settings: for Microscopy at day 3: Vero cells, 1000 TCID50 SARS-CoV-2, cytopathic effect (CPE)
M^pro = M^pro (Severe acute respiratory syndrome coronavirus 2, UniProt P0DTD1); assay: Initial in silico and enzymology studies targeting M^pro
ACE2 protein = ACE2 protein by ELISA in cell lysate of CACO-2 cells; format: cell-based, human; settings: 72 hours, 1 μM daily for three days, compared to UP-P, FIG. 3
Description: FIG. 3 illustrates the expression of ACE2 protein by ELISA in cell lysate of CACO-2 cells 72 hours following treatment with andrographolide (UP-A) and piceid (UP-P) (1 μM) daily for three days.
For ACE2 protein measurements, Caco-2 cells were scraped from each well in ice-cold RIPA buffer for ELISA assays. To determine the quantity of ACE2 in Caco-2 cells an Angiotensin Converting Enzyme 2 (ACE2) ELISA Kit (CusaBio, Wuhan, Hubei, China, catalogue number: CSB-E17204m) was performed on samples as per the manufacturers protocol. Briefly, each of the samples was loaded with Sample Diluent in duplicate wells. A standard curve was prepared from a Standard solution provided. 0, 6.25, 12.5, 25, 50, 100, 200 and 400 μg/mL of the standard was added to a series of wells in duplicate. The final volume of each standard well was made up to […] with the addition of Sample Diluent. […] of provided Biotin-antibody (1×) was added to each well and then after washing steps, […] of HRP-avidin antibody (1×). The plate was put on shake mode on a CLARIOstarPlus Multi-Mode Microplate Reader (BMG Labtech, Ortenberg, Germany) to ensure proper mixing before being scanned at Ex/Em=570/540 nm in an end point mode.

SMILES | ACE2 mRNA expression (ACE2 mRNA; Vero (AGM) cells, 48 h, FIG. 1) | Microscopy at day 3 (SARS-CoV-2 (Vic 01); drug conc. 0.078125 μM) | Microscopy at day 3 (SARS-CoV-2 (Vic 01); drug conc. 0.15625 μM) | Microscopy at day 3 (SARS-CoV-2 (Vic 01); drug conc. 0.3125 μM) | Microscopy at day 3 (SARS-CoV-2 (Vic 01); drug conc. 0.625 μM) | Microscopy at day 3 (SARS-CoV-2 (Vic 01); drug conc. 1.25 μM) | Microscopy at day 3 (SARS-CoV-2 (Vic 01); drug conc. 2.5 μM) | Microscopy at day 3 (SARS-CoV-2 (Vic 01); drug conc. 5 μM) | Microscopy at day 3 (SARS-CoV-2 (Vic 01); drug conc. 10 μM) | Microscopy at day 3 (SARS-CoV-2 (Vic 01); drug conc. 20 μM) | Microscopy at day 3 (SARS-CoV-2 (Vic 01); drug conc. 40 μM) | further results
OCC1O[C@@H](Oc2cc(O)cc(/C=C/c3ccc(O)cc3)c2)C(O)C(O)[C@@H]1O (stereo partly drawn) [Piceid, 2-[3-Hydroxy-5-[(E)-2-(4-hydroxyphenyl)ethenyl]phenoxy]-6-(hydroxymethyl)oxane-3,4,5-triol] | no discernible effect | CPE | CPE | CPE | CPE | CPE | CPE | CPE | CPE | CPE | CPE | candidate targeting M^pro (M^pro): promising candidate
C=C1CCC2[C@@](C)(CC[C@@H](O)[C@@]2(C)CO)C1C/C=C1/C(=O)OCC1O (stereo partly drawn) [Andrographis, 3-[2-[Decahydro-6-hydroxy-5-(hydroxymethyl)-5,8a-dimethyl-2-methylene-1-napthalenyl]ethylidene]dihydro-4-hydroxy-2(3H)-furanone] | significantly decreased | CPE | CPE | CPE | CPE | CPE | CPE | CPE | CPE | CPE | Toxicity | time of maximal effect on ACE2 mRNA expression (ACE2 mRNA; FIG. 2, decreasing at 48 hours and diminishing at 72 hours): 24 h; concentration below which loss of efficacy is observed (ACE2 mRNA) (ACE2 mRNA; FIG. 2 dose response): below 0.5 μM; concentration achieving the maximal response (ACE2 mRNA) (ACE2 mRNA; FIG. 2 dose response, no substantial increase in activity at higher doses): 1 µM; ACE2 mRNA expression (ACE2 mRNA; Vero (AGM) cells, 24 hours, FIG. 2): decreasing ACE2 mRNA expression; dose with the greatest effect on ACE2 mRNA expression (ACE2 mRNA; Vero (AGM) cells, 48 h, FIG. 1, lowest dose): 1 µM; ACE2 protein levels by ELISA (ACE2 protein): decreased; IC50 (SARS-CoV-2 (Vic 01); Severe acute respiratory syndrome coronavirus 2, Vero, 72 h, read-out: IC50 calculated from virus titration (TCID50 data)): 3.25 µM; antiviral activity against SARS-CoV-2 (SARS-CoV-2 (Vic 01); alone and in combination with piceid and ursolic acid): showed antiviral activity
C[C@H]1[C@H](C)CC[C@]2(C(=O)O)CC[C@]3(C)C(=CC[C@@H]4[C@@]5(C)CC[C@H](O)C(C)(C)[C@@H]5CC[C@]43C)[C@H]12 [Ursolic acid, (1S,2R,4aS,6aR,6aS,6bR,8aR,10S,12aR,14bS)-10-Hydroxy-1,2,6a,6b,9,9,12a-heptamethyl-2,3,4,5,6,6a,7,8,8a,10,11,12,13,14b-tetradecahydro-1H-picene-4a-carboxylic acid] | – | CPE | CPE | CPE | CPE | CPE | CPE | CPE | CPE | CPE | Toxicity | ACE2 mRNA expression (ACE2 mRNA): decreased ACE2 mRNA expression to a lesser extent in a dose dependent manner
